Data from ChEMBL document CHEMBL1125524, “Adenosine A1 antagonists. 2. Structure-activity relationships on diuretic activities and protective effects against acute renal failure” (J Med Chem, 1992).

Tests used:
Rattus norvegicus [1] = experiment: Percent inhibition of Urea nitrogen by the compound given as ratio of UN value in treated to vehicle treated ones after intraperitoneal administration of 10 mg/kg of compound to rats(vehicle 129.1+/-14.5); format: functional; conditions: ip
Rattus norvegicus [2] = experiment: Ratio of sodium ion/potassium ion concentration in treated rats to that in control rats, at a peroral dose of 0.1 mg/Kg; format: functional
Rattus norvegicus [3] = experiment: Ratio of urinary excretion value (Na+ concentration) in treated rats to that in control rats, at a peroral dose of 0.4 mg/Kg; format: functional, Urine
Rattus norvegicus [4] = experiment: Ratio of sodium ion/potassium ion concentration in treated rats to that in control rats, at a peroral dose of 1.6 mg/Kg; format: functional
Rattus norvegicus [5] = experiment: Serum creatinine concentration measured after intraperitoneal administration of 1 mg/kg of compound to rats(vehicle 3.62+/-0.52); format: functional
Rattus norvegicus [6] = experiment: Ratio of urinary excretion value (urinary volume) in treated rats to that in control rats, at a peroral dose of 1.6 mg/Kg; format: functional, Urine
Rattus norvegicus [7] = experiment: Effect on urinary excretion potassium and sodium after oral administration of 0.4 mg/kg to rats(potassium and sodium excretion in control rat is 0.191+/-0.020); format: functional, Urine
Rattus norvegicus [8] = experiment: Effect on urinary excretion potassium and sodium after oral administration of 0.1 mg/kg to rats(potassium and sodium excretion in control rat is 0.133+/-0.022); format: functional, Urine
Rattus norvegicus [9] = experiment: Ratio of urinary excretion value (urinary volume) in treated rats to that in control rats, at a peroral dose of 0.4 mg/Kg; format: functional, Urine
Rattus norvegicus [10] = experiment: Oral diuretic activity was measured after oral administration of 0.1 mg/kg to rats(control volume is 1.15+/-0.12); format: functional, Urine
Rattus norvegicus [11] = experiment: Ratio of urinary excretion value (Na+ concentration) in treated rats to that in control rats, at a peroral dose of 1.6 mg/Kg; format: functional, Urine
Adenosine A2 receptor [12] = biological target: T1, Adenosine A2 receptor (Rattus norvegicus, UniProt P29276+P30543)
Rattus norvegicus [13] = experiment: Urea nitrogen concentration measured after intraperitoneal administration of 10 mg/kg of compound to rats(vehicle 129.1+/-14.5); format: functional
Rattus norvegicus [14] = experiment: Effect on urinary excretion potassium and sodium after oral administration of 1.6 mg/kg to rats(potassium and sodium excretion in control rat is 0.147+/-0.015); format: functional, Urine
Rattus norvegicus [15] = experiment: Serum creatinine concentration measured after intraperitoneal administration of 10 mg/kg of compound to rats(vehicle 3.93+/-0.45); format: functional
Rattus norvegicus [16] = experiment: Ratio of urinary excretion value (urinary volume) in treated rats to that in control rats, at a peroral dose of 0.1 mg/Kg; format: functional, Urine
Rattus norvegicus [17] = experiment: Percent inhibition of serum creatinine by the compound given as ratio of Cr value in treated to vehicle treated ones after intraperitoneal administration of 10 mg/kg of compound to rats(vehicle 3.93+/-0.45); format: functional; conditions: ip
Rattus norvegicus [18] = experiment: Urea nitrogen concentration measured after intraperitoneal administration of 1 mg/kg of compound to rats(vehicle 105.2+/-14.9); format: functional
Rattus norvegicus [19] = experiment: Ratio of sodium ion/potassium ion concentration in treated rats to that in control rats, at a peroral dose of 0.4 mg/Kg; format: functional
Rattus norvegicus [20] = experiment: Oral diuretic activity was measured after oral administration of 0.4 mg/kg to rats(control volume is 1.15+/-0.17); format: functional, Urine
Rattus norvegicus [21] = experiment: Percent inhibition of Urea nitrogen by the compound given as ratio of UN value in treated to vehicle treated ones after intraperitoneal administration of 1 mg/kg of compound to rats(vehicle 105.2+/-14.9); format: functional; conditions: ip
Rattus norvegicus [22] = experiment: Percent inhibition of serum creatinine by the compound given as ratio of Cr value in treated to vehicle treated ones after intraperitoneal administration of 1 mg/kg of compound to rats(vehicle 3.62+/-0.52); format: functional; conditions: ip
Rattus norvegicus [23] = experiment: Oral diuretic activity was measured after oral administration of 1.6 mg/kg to rats(control volume is 0.96+/-0.09); format: functional, Urine
Rattus norvegicus [24] = experiment: Ratio of urinary excretion value (Na+ concentration) in treated rats to that in control rats, at a peroral dose of 0.1 mg/Kg; format: functional, Urine
Rattus norvegicus [25] = experiment: Urea nitrogen concentration measured after intraperitoneal administration of 0.1 mg/kg of compound to rats(vehicle 93.4+/-10); format: functional
Rattus norvegicus [26] = experiment: Serum creatinine concentration measured after intraperitoneal administration of 1 mg/kg of compound to rats(vehicle 4.19+/-0.2); format: functional
Rattus norvegicus [27] = experiment: Ratio of urinary excretion value (urinary volume) in treated rats to that in control rats, at a peroral dose of 25 mg/Kg; format: functional, Urine
Rattus norvegicus [28] = experiment: Ratio of sodium ion/potassium ion concentration in treated rats to that in control rats, at a peroral dose of 25 mg/Kg; format: functional
Rattus norvegicus [29] = experiment: Ratio of sodium ion/potassium ion concentration in treated rats to that in control rats, at a peroral dose of 1.5 mg/Kg; format: functional
Rattus norvegicus [30] = experiment: Oral diuretic activity was measured after oral administration of 1.5 mg/kg to rats(control volume is 1.01+/-0.08); format: functional, Urine
Rattus norvegicus [31] = experiment: Ratio of urinary excretion value (Na+ concentration) in treated rats to that in control rats, at a peroral dose of 25 mg/Kg; format: functional, Urine
Rattus norvegicus [32] = experiment: Ratio of urinary excretion value (Na+ concentration) in treated rats to that in control rats, at a peroral dose of 6.25 mg/Kg; format: functional, Urine
Rattus norvegicus [33] = experiment: Oral diuretic activity was measured after oral administration of 25 mg/kg to rats(control volume is 0.74+/-0.05); format: functional, Urine
Rattus norvegicus [34] = experiment: Urea nitrogen concentration measured after intraperitoneal administration of 1 mg/kg of compound to rats(vehicle 156.1+/-8.4); format: functional
Rattus norvegicus [35] = experiment: Ratio of urinary excretion value (Na+ concentration) in treated rats to that in control rats, at a peroral dose of 1.5 mg/Kg; format: functional, Urine
Rattus norvegicus [36] = experiment: Effect on urinary excretion potassium and sodium after oral administration of 25 mg/kg to rats(potassium and sodium excretion in control rat is […]+/-[…]); format: functional, Urine
Rattus norvegicus [37] = experiment: Ratio of urinary excretion value (urinary volume) in treated rats to that in control rats, at a peroral dose of 6.25 mg/Kg; format: functional, Urine
Rattus norvegicus [38] = experiment: Effect on urinary excretion potassium and sodium after oral administration of 1.5 mg/kg to rats(potassium and sodium excretion in control rat is 0.165+/-0.008); format: functional, Urine
Rattus norvegicus [39] = experiment: Ratio of urinary excretion value (urinary volume) in treated rats to that in control rats, at a peroral dose of 1.5 mg/Kg; format: functional, Urine
Rattus norvegicus [40] = experiment: Serum creatinine concentration measured after intraperitoneal administration of 0.1 mg/kg of compound to rats(vehicle 2.9+/-0.28); format: functional
Rattus norvegicus [41] = experiment: Effect on urinary excretion potassium and sodium after oral administration of 1.6 mg/kg to rats(potassium and sodium excretion in control rat is 0.173+/-0.015); format: functional, Urine
Rattus norvegicus [42] = experiment: Effect on urinary excretion potassium and sodium after oral administration of 25 mg/kg to rats(potassium and sodium excretion in control rat is 0.186+/-0.020); format: functional, Urine
Adenosine receptor A1 [43] = biological target: T2, Adenosine receptor A1 (Rattus norvegicus, UniProt P25099)
T2 sequence (P25099 whole entry): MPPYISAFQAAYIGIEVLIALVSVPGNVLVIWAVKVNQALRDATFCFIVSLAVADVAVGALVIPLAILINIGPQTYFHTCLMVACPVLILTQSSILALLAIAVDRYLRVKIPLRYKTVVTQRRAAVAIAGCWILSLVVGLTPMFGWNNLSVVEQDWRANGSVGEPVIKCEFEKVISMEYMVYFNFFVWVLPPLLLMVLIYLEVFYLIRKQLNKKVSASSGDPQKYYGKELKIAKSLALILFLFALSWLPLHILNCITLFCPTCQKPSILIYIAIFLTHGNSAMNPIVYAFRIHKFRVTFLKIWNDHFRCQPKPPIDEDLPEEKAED
Description: Binding affinity towards adenosine A1 receptor in rat cortical membranes using N6-[3H]cyclohexyladenosine as radioligand

Adenosine receptor A1 [44] = biological target: T3, Adenosine receptor A1 (Cavia porcellus, UniProt P47745)
T3 sequence (P47745 whole entry): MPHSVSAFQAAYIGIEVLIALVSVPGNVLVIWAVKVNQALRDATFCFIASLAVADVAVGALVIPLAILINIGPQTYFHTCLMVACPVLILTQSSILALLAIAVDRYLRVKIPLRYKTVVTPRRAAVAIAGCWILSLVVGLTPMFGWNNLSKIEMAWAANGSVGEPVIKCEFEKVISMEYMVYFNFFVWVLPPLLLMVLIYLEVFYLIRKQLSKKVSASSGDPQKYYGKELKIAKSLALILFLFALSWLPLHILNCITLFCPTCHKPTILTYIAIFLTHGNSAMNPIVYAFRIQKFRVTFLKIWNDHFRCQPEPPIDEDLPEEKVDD
Description: Binding affinity against adenosine A1 receptor in guinea pig forebrain membranes using N6-[3H]cyclohexyladenosine as radioligand

Rattus norvegicus [45] = experiment: Percent inhibition of serum creatinine by the compound given as ratio of Cr value in treated to vehicle treated ones after intraperitoneal administration of 1 mg/kg of compound to rats(vehicle 4.70+/-0.17); format: functional; conditions: ip
Rattus norvegicus [46] = experiment: Serum creatinine concentration measured after intraperitoneal administration of 1 mg/kg of compound to rats(vehicle 4.70+/-0.17); format: functional
Adenosine A2 receptor [47] = biological target: T1, Adenosine A2 receptor; remark: listed apart in the source
Description: Binding affinity towards adenosine A2 receptor in rat striatal membranes using N-[3H]-ethyladenosin-5''-uronamide as radioligand

Rattus norvegicus [48] = experiment: Percent inhibition of Urea nitrogen by the compound given as ratio of UN value in treated to vehicle treated ones after intraperitoneal administration of 1 mg/kg of compound to rats(vehicle 154.2+/-5.0); format: functional; conditions: ip
Rattus norvegicus [49] = experiment: Oral diuretic activity was measured after oral administration of 1.6 mg/kg to rats(control volume is 0.93+/-0.03); format: functional, Urine
Rattus norvegicus [50] = experiment: Oral diuretic activity was measured after oral administration of 25 mg/kg to rats(control volume is 0.91+/-0.04); format: functional, Urine
Rattus norvegicus [51] = experiment: Urea nitrogen concentration measured after intraperitoneal administration of 1 mg/kg of compound to rats(vehicle 154.2+/-5.0); format: functional

CCn1c(=O)c2nc(C(C3CC3)C3CC3)[nH]c2n(CC)c1=O
inhibition in vivo at 10 mg/kg (Rattus norvegicus [1]): 61%
Na+/K+ (Rattus norvegicus [2]): 1.37
T/C (Rattus norvegicus [3]): 2.27
Na+/K+ (Rattus norvegicus [4]): 1.71
Cr (Rattus norvegicus [5]): 3.24 mg/dL
T/C (Rattus norvegicus [6]): 1.71
Na (Rattus norvegicus [7]): 0.433 m equiv 6hr-1 100g-1
Na (Rattus norvegicus [8]): 0.113 m equiv 6hr-1 100g-1
T/C (Rattus norvegicus [9]): 1.84
Urine volume (Rattus norvegicus [10]): 0.83 ml 6hr-1 100g-1
T/C (Rattus norvegicus [11]): 2.12
Ki (Adenosine A2 receptor [12]): 690 nM
UN (Rattus norvegicus [13]): 50.6 mg/dL
Na (Rattus norvegicus [14]): 0.312 m equiv 6hr-1 100g-1
Cr (Rattus norvegicus [15]): 1.74 mg/dL
T/C (Rattus norvegicus [16]): 0.72
inhibition in vivo at 10 mg/kg (Rattus norvegicus [17]): 56%
UN (Rattus norvegicus [18]): 98.5 mg/dL
Na+/K+ (Rattus norvegicus [19]): 1.63
Urine volume (Rattus norvegicus [20]): 2.11 ml 6hr-1 100g-1
inhibition in vivo at 1 mg/kg (Rattus norvegicus [21]): 6%
inhibition in vivo at 1 mg/kg (Rattus norvegicus [22]): 10%
Urine volume (Rattus norvegicus [23]): 1.72 ml 6hr-1 100g-1
T/C (Rattus norvegicus [24]): 0.85

CCCn1c(=O)[nH]c(=O)c2[nH]c(C(C3CC3)C3CC3)nc21
UN (Rattus norvegicus [25]): 104.2 mg/dL
Cr (Rattus norvegicus [26]): 3 mg/dL
T/C (Rattus norvegicus [27]): 2.5
Na+/K+ (Rattus norvegicus [28]): 1.4
Na+/K+ (Rattus norvegicus [29]): 1.13
Urine volume (Rattus norvegicus [30]): 1.13 ml 6hr-1 100g-1
T/C (Rattus norvegicus [31]): 2.16
T/C (Rattus norvegicus [32]): 1.69
Ki (Adenosine A2 receptor [12]): > 100000 nM
Urine volume (Rattus norvegicus [33]): 1.85 ml 6hr-1 100g-1
UN (Rattus norvegicus [34]): 119.1 mg/dL
T/C (Rattus norvegicus [35]): 1.22
Na (Rattus norvegicus [36]): 0.328 m equiv 6hr-1 100g-1
T/C (Rattus norvegicus [37]): 1.42
Na (Rattus norvegicus [38]): 0.202 m equiv 6hr-1 100g-1
T/C (Rattus norvegicus [39]): 1.12
Cr (Rattus norvegicus [40]): 2.96 mg/dL

FC(F)(F)c1nnc2c(NC3CCCC3)nc3ccc(Cl)cc3n12
Na (Rattus norvegicus [41]): 0.212 m equiv 6hr-1 100g-1
Na+/K+ (Rattus norvegicus [4]): 0.98
Na (Rattus norvegicus [42]): 0.323 m equiv 6hr-1 100g-1
T/C (Rattus norvegicus [6]): 1.15
T/C (Rattus norvegicus [27]): 1.91
Ki (Adenosine receptor A1 [43]): 5.5 nM
Na+/K+ (Rattus norvegicus [28]): 1.31
T/C (Rattus norvegicus [31]): 1.74
Ki (Adenosine receptor A1 [44]): 36 nM
inhibition in vivo at 1 mg/kg (Rattus norvegicus [45]): 45%
T/C (Rattus norvegicus [32]): 1.82
T/C (Rattus norvegicus [11]): 1.22
Ki (Adenosine A2 receptor [12]): 710 nM
Cr (Rattus norvegicus [46]): 2.58 mg/dL
Ki (Adenosine A2 receptor [47]): 2100 nM
inhibition in vivo at 1 mg/kg (Rattus norvegicus [48]): 42%
Urine volume (Rattus norvegicus [49]): 1.07 ml 6hr-1 100g-1
T/C (Rattus norvegicus [37]): 2.17
Urine volume (Rattus norvegicus [50]): 1.74 ml 6hr-1 100g-1
UN (Rattus norvegicus [51]): 88.7 mg/dL
